Values of other authors, collected in patent US5594133A, “Crystalline acid addition salts of diastereomerically pure 1-(2,2-dimethylpropinonyloxy)-ethyl-3-cephem-4-carboxylate” (Hoechst Aktiengesellschaft, priority 1991, dated 1997).

How the values were obtained:
[1] = EP-A-0 329 008
[2] = T. Nishimura et al., J. Antibiotics XL (1987) 81-90

Compound	splitting by endogenous enzymes into the cephalosporin containing the free carboxyl group ([1]; after absorption)	enteral absorption ([1]; various animal species)	influence of the stereochemistry in the 1-position of the ethyl ester group on enteral absorbability [2]
COCC1=C(C(=O)OC(C)OC(=O)C(C)(C)C)N2C(=O)C(NC(=O)/C(=N\O)c3csc(N)n3)[C@H]2SC1 (stereo partly drawn) [ester of the formula I, 1-(2,2-dimethylpropionyloxy)-ethyl 7-[2-(2-aminothiazol-4-yl)-2-(Z)-hydroxyimino-acetamido]-3-methoxymethyl-3-cephem-4-carboxylate]	split again rapidly and completely	absorbed well enterally	–
CC(OC(=O)OC1CCCCC1)OC(=O)C1=C(CSc2nnnn2CCN(C)C)CS[C@@H]2[C@H](NC(=O)Cc3csc(N)n3)C(=O)N12 (stereo partly drawn) [cefotiam-hexetil]	–	–	no influence on enteral absorbability
